# Test results: article PMC6721044, “Ratiometric BRET Measurements of ATP with a Genetically-Encoded Luminescent Sensor” (Sensors (Basel, Switzerland), 2019)
# Molecular target: T1, ARSeNL (mScarlet-ε-NanoLuc); ε subunit of the ATP synthase from Bacillus subtilis (Bacillus subtilis, UniProt P37812)
# T1 construct: gene atpC; isolated ε subunit (from ATeam1.03) flanked by N-terminal mScarlet and C-terminal NanoLuc as reporters
# Test: BRET ratio (mScarlet/NanoLuc) dose-response, microplate reader, Hill fit
# Assay type: binding
# Settings: read-out: KD (apparent)
# T1 sequence (P37812 whole entry): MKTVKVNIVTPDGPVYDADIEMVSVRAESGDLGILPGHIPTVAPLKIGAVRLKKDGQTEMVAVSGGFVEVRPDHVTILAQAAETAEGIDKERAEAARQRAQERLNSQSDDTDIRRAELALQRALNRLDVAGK
structure (smiles),measurement,value
Nc1ncnc2c1ncn2[C@@H]1O[C@H](COP(=O)(O)OP(=O)(O)OP(=O)(O)O)[C@@H](O)[C@H]1O [ATP],Kd,1100 ± 100 µM
